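A five-concentration, 48-hour dose response in 96-well plates underlies each endpoint, interpolated linearly between surrounding concentrations. GI50 marks 50% less growth. TGI marks complete inhibition of growth.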
What was measured:
Experiment in all cases: DTP human tumour cell line panel, 48 h
SF-268 CNS = tested on: SF-268 CNS
SR leukemia = tested on: SR leukemia
NCI-H522 lung = tested on: NCI-H522 lung
TK-10 renal = tested on: TK-10 renal
RXF 393 renal = tested on: RXF 393 renal
SF-539 CNS = tested on: SF-539 CNS
UACC-257 melanoma = tested on: UACC-257 melanoma
786-0 renal = tested on: 786-0 renal
SK-OV-3 ovarian = tested on: SK-OV-3 ovarian

SMILES	TGI (SF-268 CNS) [µM]	TGI (SR leukemia) [µM]	TGI (NCI-H522 lung) [µM]	TGI (TK-10 renal) [µM]	TGI (RXF 393 renal) [µM]	TGI (SF-539 CNS) [µM]	TGI (UACC-257 melanoma) [µM]	TGI (786-0 renal) [µM]	TGI (SK-OV-3 ovarian) [µM]	GI50 (SF-268 CNS) [µM]	GI50 (SR leukemia) [nM]	GI50 (NCI-H522 lung) [nM]	GI50 (TK-10 renal) [µM]	GI50 (RXF 393 renal) [nM]	GI50 (SF-539 CNS) [µM]	GI50 (UACC-257 melanoma) [µM]	GI50 (SK-OV-3 ovarian) [µM]	GI50 (786-0 renal) [µM]
c1cc2c(cnc3cscc32)s1	> 100	> 100	> 100	> 100	> 100	> 100	> 100	> 100	–	–	–	–	–	–	–	–	–	–
Cn1c(=O)c2c(nc3n2CCC(=O)N3)n(C)c1=O	> 100	> 100	> 100	> 100	> 100	> 100	> 100	> 100	> 100	–	–	–	–	–	–	–	–	–
COC(=O)C12C3C4C1C1C2C3C41I (configuration not stated)	> 100	–	–	> 100	> 100	> 100	> 100	> 100	> 100	–	–	–	–	–	–	–	–	–
Cc1c(C(=O)CC(=O)C(=O)NC2C3CC4CC(C3)CC2C4)[n+](=O)c2ccccc2n1[O-] (configuration not stated)	> 100	> 100	> 100	> 100	> 100	> 100	> 100	> 100	> 100	–	–	–	–	–	–	–	–	–
CC(=O)O/C(C)=C\C(=O)O/N=C(\N)c1ccc(C)cc1	91.6	> 100	49.1	> 100	99.3	57.4	> 100	> 100	> 100	–	–	–	–	–	–	–	–	–
CCOC(=O)/C=C(/CN1C(=O)c2ccccc2C1=O)c1ccccc1	> 100	–	> 100	> 100	> 100	> 100	> 100	> 100	> 100	–	–	–	–	–	–	–	–	–
CN(C)CCNC(=O)c1cc([N+](=O)[O-])cc2ccc(-c3ccccc3)nc12	50	–	17.2	95.5	22.8	27.2	20.8	94.3	25.5	–	–	–	–	–	–	–	–	–
CCCCCCCCCCCCC(SCCNC(=O)CCNC(=O)C(O)C(C)(C)COP(=O)(O)OP(=O)(O)OCC1OC(n2cnc3c(N)ncnc32)C(O)C1OP(=O)(O)O)C(=O)NCC(N)=O (configuration not stated)	> 100	–	> 100	> 100	> 100	> 100	> 100	> 100	98.2	–	–	–	–	–	–	–	–	–
C=CCN(N=O)C(=O)N(CCC)CCCC(NC(C)=O)C(=O)NCc1ccccc1 (configuration not stated)	> 100	–	> 100	> 100	> 100	> 100	> 100	> 100	> 100	–	–	–	–	–	–	–	–	–
CCOC(=O)c1c2ccc(/C=C/C(=O)OC)ccc-2c(C(=O)OCC)c1N	9.68	–	> 100	> 100	> 100	> 100	> 100	> 100	> 100	–	–	–	–	–	–	–	–	–
O=C1c2cccc3cc([N+](=O)[O-])cc(c23)C(=O)N1CCCN1CCN(CCCN2C(=O)c3cccc4cc([N+](=O)[O-])cc(c34)C2=O)CC1	–	–	–	16	1.76	12	8.97	5.55	46.8	–	–	–	–	–	–	–	–	–
O=c1oc2c3ccc4ccccc4c3n(Cc3nc4ccccc4[nH]3)c2c2ccccc12	> 100	> 100	> 100	> 100	> 100	> 26.2	> 90.6	> 47.9	> 100	–	–	–	–	–	–	–	–	–
COc1ccc2c(C3(O)CCNCC3)c[nH]c2c1	> 100	–	> 100	> 100	> 100	> 100	–	> 100	> 100	–	–	–	–	–	–	–	–	–
O=C1NC(=O)C(c2ccccc2Cl)=C1Nc1cccc(O)c1	> 25	> 25	> 25	> 25	> 21.1	> 25	> 25	> 25	> 25	12.5	1970	2170	10.7	1920	8.93	> 25	4.99	13.8
CC1(C)OC2C(=O)OC(COCc3ccccc3)C2O1 (configuration not stated)	> 100	> 100	–	> 100	> 100	> 100	> 100	> 100	–	–	–	–	–	–	–	–	–	–
CCOC(OC1=C(C#N)CCC1)C(CC)[Se]c1ccccc1 (configuration not stated)	38.7	31.1	26.8	> 100	38.7	37.6	> 100	28.2	> 100	–	–	–	–	–	–	–	–	–
c1ccc(COc2ccc3[nH]c4c(ncc5[nH]c6ccccc6c54)c3c2)cc1	34.6	30.3	31.9	40.8	23.3	29.4	32.8	18.5	32.9	–	–	–	–	–	–	–	–	–

Reference: PubChem BioAssay (NCI)
